Measured values as given in US9284562B2, “Biological circuit chemotactic converters” (Trustees of Boston University, priority 2009, dated 2016).

Assays:
[1] = test system: GFP expression; experiment: Exemplary SIMM circuit of FIG. 2B, GFP output (FIG. 2C); assay type: cell-based; conditions: inducer added to the exemplary SIMM circuit of FIG. 2B
Text: FIGS. 2A-2C depict an exemplary switch-module (SIMM) for use in the converters described herein and data from the exemplary switch module (SIMM). FIG. 2A depicts an exemplary SIMM comprising a first inducible promoter sequence (P inducible,1) linked to a forward recombinase recognition site (R1RS), an inverted sequence of a second inducible promoter (P inducible,2), a recombinase sequence (Recombinase 1), and a reverse recombinase recognition site (R1RS). Further upstream of the first inducible promoter sequence of the SIMM is an inverted sequence of a constitutively active inducer agent that is specific for the second inducible promoter. Downstream of the reverse recombinase recognition site of the SIMM is an inverted sequence of a third inducible promoter (P inducible,3) and a sequence encoding a dominant negative version of the inducer agent specific for the second inducible promoter. A further component of the exemplary circuit is a sequence of the second inducible promoter operably linked to an output product. In the absence of any inducing agent, constitutive expression of the inducer agent that is specific for the second inducible promoter drives expression from the inducible promoter operably linked to an output product. […]

[2] = target: Hin (Salmonella typhimurium, UniProt P03013); conditions: relative to wild type sites hixL and hixR; cited from earlier work
[3] = target: Hin recombinase (Salmonella typhimurium, UniProt P03013); conditions: relative to hixL and hixR; cited from earlier work
[4] = target: signaling complex; conditions: read-out: Affinity (Kd) for signaling complex; cited from earlier work

Sequence of Hin recombinase (P03013 whole entry): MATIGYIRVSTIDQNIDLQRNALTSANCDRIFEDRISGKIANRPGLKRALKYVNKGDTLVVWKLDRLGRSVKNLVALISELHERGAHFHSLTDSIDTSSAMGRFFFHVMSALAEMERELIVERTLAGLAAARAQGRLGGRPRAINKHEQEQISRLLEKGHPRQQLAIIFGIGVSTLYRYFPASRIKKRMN
Sequence of Hin (P03013 whole entry): as above

## CC(C)S[C@@H]1O[C@H](CO)[C@H](O)[C@H](O)[C@H]1O [IPTG, isopropyl β-D-1-thiogalactopyranoside]
[1]
  Effect on GFP expression of the circuit: restores the circuit to its initial state

## hixC: composite 26 bp symmetrical hix site, binding site for Salmonella typhimurium Hin recombinase (DNA TTATCAAAAACCATGGTTTTTGATAA; chemistry not given here)
[2]
  binding affinity for Hin: higher binding affinity for Hin
[3]
  fold slower inversion rate than wild type sites hixL and hixR: 16 fold

## Maltose-binding protein
[4]
  Kd: 250 µM

## Cc1c2c(c(O)c3c(O)cccc13)C(=O)[C@]1(O)C(=O)C(C(N)=O)=C(O)[C@@H](N(C)C)[C@@H]1C2 [anhydrous tetracycline, Anhydrotetracycline]
[1]
  Effect on GFP expression of the circuit: inhibits GFP expression
